The results in this text go back to patent US10596169B2, “Cancer treatment with combination of plinabulin and taxane” (BeyondSpring Inc., priority 2013, dated 2020).

Structures are written as SMILES. Marks after values point to notes of the source that are not given here.

Series [1] concerns MV522 human non-small cell lung tumor xenograph model. In words: Example 1: MV522 xenograft, NPI-2358 single agent and with docetaxel (TGI/TGD). It counts as in vivo, athymic nu/nu mice. The note with it: for MDS day ± SD: endpoint 1.5 cm^3. On the procedure: In vivo evaluation of plinabulin (NPI-2358) as a single agent and in combination with docetaxel in the MV522 human non-small cell lung tumor xenograph model in athymic nu/nu mice
The objective of the example was to determine potential additive or synergistic effects of plinabulin in combination with docetaxel in the MV522 model by exploring the scheduling of the drug combination explored by administering one of the agents 2 hours after the first drug was given. Significant endpoints for this experiment included mean tumor growth inhibition (TGI) or regression, tumor growth delay (TGD) in large tumor, weight loss, and mortality.
(§1) Female nude mice (Hsd: Athymic Nude-Foxn1^nu) between 5 and 6 weeks of age weighing approximately 20 grams were obtained from Harlan, Inc. (Madison, Wis.). MV522 is a conventional human NSC metastatic lung tumor cell line (U.S. Pat. No. 7,700,615 or 7,629,380). Animals were injected subcutaneously (SC) with approximately 1×10^7 MV522 cells harvested from tissue culture. When tumors grew to approximately 105 cubic millimeters (mm^3) in size (3 days following implantation), animals were pair-matched by tumor size into treatment and control groups; each treatment group contained eight mice. Animals were ear-tagged and followed individually throughout the experiment.
(§2) Initial doses were administered on Day 1 following pair-matching. The experiment was carried out as a tumor growth inhibition (TGI) and tumor growth delay (TGD) study. Group 1 endpoint was when tumor volume reached 1.2 cm^3 (TGI) and the treated groups endpoint was when each individual animal's tumor volume reached 1.5 cm^3 (TGD). […] To serve as negative controls, NPI-2358 vehicle and docetaxel vehicle were injected IP on a 2×WKLY×3 schedule and IV on a Q2D×3 schedule, respectively. Docetaxel was administered by intravenous (IV) injection via tail vein at 15 mg/kg once every other day for three treatments (Q2D×3) or at 25 mg/kg on a Q7D×3 schedule (every 7 day for three treatment). Docetaxel and docetaxel vehicle were administered two hours prior to NPI-2358 vehicle and NPI-2358, respectively, in Groups 7-9 and 12-14. For Groups 10, 11, 15, and 16, NPI-2358 was given two hours prior to docetaxel.
Mice were weighed and caliper tumor measurements taken. Tumor growth inhibition (TGI) values were calculated for each group containing treated animals using the formula below: […]
Animals experiencing complete tumor responses or animals experiencing technical or drug-related deaths were censored from final TGI calculations; however animals experiencing partial tumor responses were included in the final TGI calculations. […] TGI values for each treatment group are reported at study completion; these calculations are based on the final study day.
This arm of the study was ended on Day 74 at the sponsor's request. […] Upon TGD study completion, a Median Day of Sacrifice (MDS) was calculated for the control (C) and each treatment (T) group and used to determine tumor growth delay (T-C) using the following equations: MDS=Median [ΣIDS] T−C=MDSTreated−MDSControl
Where IDS (Individual Day of Sacrifice) is the day when each animal reached its tumor volume endpoint (1.5 cm^3); only animals reaching this endpoint were included in TGD calculations. Gross or net log10 cell kill for each treatment group was determined using the following equations: […]

For series [2] the following is noted: mouse, in vivo. On the procedure: as §1, §2
Individual and group mean weights ±SD and percent weight change were recorded twice weekly until study completion beginning Day 1. Group weights on Day 42 and weight nadir values are reported.
Animals were observed twice weekly for general moribundity and daily for mortality.

Where [3] appears, read: G7: docetaxel 15 mg/kg IV Q2Dx3 + NPI-2358 vehicle.
[4] abbreviates: G12: docetaxel 25 mg/kg IV Q7Dx3 + NPI-2358 vehicle.

Take `CC(=O)O[C@@]12CO[C@@H]1C[C@H](O)[C@@]1(C)C(=O)[C@H](O)C3=C(C)[C@@H](OC(=O)[C@H](O)[C@@H](NC(=O)OC(C)(C)C)c4ccccc4)C[C@@](O)([C@@H](OC(=O)c4ccccc4)[C@H]21)C3(C)C` [Docetaxel, docetaxel]: in series [1] (setting [3]), the “#CR (Day 25)” value is 0/0, the “#CR (TGD study)” value is reported as 0/0, the “#LTS (long-term survivors)” value is reported as 0 and the “#PR (Day 25)” value is 0/0. Besides, in series [1] (setting [3]), the “#PR (TGD study)” value is on record as 0/0, the “% TGI” value came out at 88%, the “Final tumor volume (Day 25) mean ± SEM” value is recorded as 259 ± 45 mm^3 and the Log10 cell kill is listed as 0.4. In series [1] (setting [3]), the “T-C (tumor growth delay)” value is 16 and the “MDS day ± SD” value was found to be 45 ± 9 days. In addition, in series [1] (setting [4]), the “#CR (Day 25)” value is recorded as 0, the “#CR (TGD study)” value was 0/0, the “#LTS (long-term survivors)” value was determined as 2 and the “#PR (Day 25)” value is reported as 8. Moreover, in series [1] (setting [4]), the “#PR (TGD study)” value was 0/0, the “% TR (Day 25)” value stood at 58%, the Activity rating result was “+ (1.0-1.9)” and the “Final tumor volume (Day 25) mean ± SEM” value is 43 ± 4 mm^3. Besides, in series [1] (setting [4]), the Log10 cell kill is 1.0, the “T-C (tumor growth delay)” value is listed as 39 and the “MDS day ± SD” value was found to be 68 ± 6 days. Moreover, in series [1] (G12: docetaxel 25 mg/kg IV Q7Dx3 + NPI-2358 vehicle, value includes tumors with PR), the “% TGI” value was 107^† %. In addition, the “Tumor volume / tumor burden compared to vehicle control” value in series [1] (single agent, Example 1) was “strong decrease in tumor burden”. In addition, in series [2], the Animal weight loss result was “significant animal weight loss was observed”.
